Data from patent EP3262942A1, “SELENODIARYLS FOR USE AS MICROBICIDE OR AS MEDICINE” (Evonik Degussa GmbH, priority 2016, dated 2018).

Experiments:
Mucor miehei = assay: Growth test in microtiter plates, HA medium, 24 h, visual evaluation; assay type: cell-based; set-up: key to Aktivität gegenüber M. miehei: +: kein Wachstum im Vergleich zur Wachstumskontrolle; -: Wachstum wie Wachstumskontrolle
M. grisea CM = assay: microbe, parasite or virus in culture; assay type: cell-based, Magnaporthe grisea; conditions: Pyricularia grisea, 24 h, read-out: Aktivität gegenüber M. grisea CM
M. grisea H2O = assay: microbe, parasite or virus in culture; assay type: cell-based, Magnaporthe grisea; conditions: Pyricularia grisea, H2O, 24 h, read-out: Aktivität gegenüber M. grisea H2O
Lepidium sativum = assay: Crop plant growth test, seeds on filter discs, 4 days, visual evaluation; assay type: in vivo
Protocol: (§1) Testsubstanzen und Kontrollen werden auf Filterrondellen in Mikrotiterplatten (48 well) vorgelegt und das verwendete Lösungsmittel (DMSO) über Lyophilisation entfernt. Anschließend werden ca. 12 Samen pro Vertiefung (Setaria italical Lepidium sativum) zugeben, mit 200 µl sterilem Leitungswasser pro Vertiefung versetzt, mit einem Deckel versehen und in einer feuchten Kammer für 4 Tage im Pflanzenbrutschrank inkubiert (16h-Licht-8h-Dunkel-Rhythmus). Die Auswertung des Tests erfolgt optisch (+: mind. 75 % Wachstumshemmung im Vergleich zur Kontrolle, -: weniger als 75 % Wachstumshemmung im Vergleich zur Kontrolle.

Setaria italica = assay: as above; assay type: in vivo
Protocol: as §1

Candida albicans = assay: Growth test in microtiter plates, HA medium, 24 h, visual evaluation; assay type: cell-based; set-up: key: +: kein Wachstum im Vergleich zur Wachstumskontrolle; -: Wachstum wie Wachstumskontrolle
P. infestans = assay: microbe, parasite or virus in culture; assay type: cell-based, Phytophthora infestans; conditions: for inhibition of growth at 5 µg/mL / inhibition of growth at 10 µg/mL / inhibition of growth at 25 µg/mL / inhibition of growth at 50 µg/mL: Phytophthora infestans, 24 h, read-out: Aktivität gegenüber P. infestans
Paecilomyces variotii = assay: Growth test in microtiter plates, HA medium, 24 h, visual evaluation; assay type: cell-based; set-up: key: +: kein Wachstum im Vergleich zur Wachstumskontrolle; -: Wachstum wie Wachstumskontrolle
Botrytis cinerea = assay: microbe, parasite or virus in culture; assay type: cell-based; conditions: Botrytis cinerea, 24 h, read-out: Aktivität gegenüber B. cinerea
Penicillium notatum = assay: Growth test in microtiter plates, HA medium, 24 h, visual evaluation; assay type: cell-based; set-up: key: +: kein Wachstum im Vergleich zur Wachstumskontrolle; -: Wachstum wie Wachstumskontrolle

Structure (SMILES) | Aktivität gegenüber M. miehei (Mucor miehei; 10µg/mL) | Aktivität gegenüber M. miehei (Mucor miehei; 50µg/mL) | inhibition of growth at 5 µg/mL (M. grisea CM) | inhibition of growth at 10 µg/mL (M. grisea CM) | inhibition of growth at 25 µg/mL (M. grisea CM) | inhibition of growth at 50 µg/mL (M. grisea CM) | inhibition of growth at 5 µg/mL (M. grisea H2O) | inhibition of growth at 10 µg/mL (M. grisea H2O) | inhibition of growth at 25 µg/mL (M. grisea H2O) | inhibition of growth at 50 µg/mL (M. grisea H2O) | Aktivität gegenüber Nutzpflanzen: L. sativum (Lepidium sativum; 10µg/R) | Aktivität gegenüber Nutzpflanzen: L. sativum (Lepidium sativum; 20µg/R) | Aktivität gegenüber Nutzpflanzen: L. sativum (Lepidium sativum; 50µg/R) | Aktivität gegenüber Nutzpflanzen: S. italica (Setaria italica; 10µg/R) | Aktivität gegenüber Nutzpflanzen: S. italica (Setaria italica; 20µg/R) | Aktivität gegenüber Nutzpflanzen: S. italica (Setaria italica; 50µg/R) | Aktivität gegenüber C. albicans (Candida albicans; 10µg/mL) | Aktivität gegenüber C. albicans (Candida albicans; 50µg/mL) | inhibition of growth at 5 µg/mL (P. infestans) | inhibition of growth at 10 µg/mL (P. infestans) | further results
Cc1cc(C)c(O)c([Se]c2c(C)c(C)cc(C)c2O)c1C [Verbindung 17, Bis(2-hydroxy-3,5,6-trimethylphenyl)selen] | - | - | 0 to 25% | 0 to 25% | 50 to 75% | 50 to 75% | 0 to 25% | 0 to 25% | 0 to 25% | 0 to 25% | - (weniger als 75 % Wachstumshemmung im Vergleich zur Kontrolle) | - (weniger als 75 % Wachstumshemmung im Vergleich zur Kontrolle) | - (weniger als 75 % Wachstumshemmung im Vergleich zur Kontrolle) | - (weniger als 75 % Wachstumshemmung im Vergleich zur Kontrolle) | - (weniger als 75 % Wachstumshemmung im Vergleich zur Kontrolle) | + (mind. 75 % Wachstumshemmung im Vergleich zur Kontrolle) | - | - | 0 to 25% | 25 to 50% | inhibition of growth at 25 µg/mL (P. infestans): 25 to 50%; inhibition of growth at 50 µg/mL (P. infestans): 25 to 50%; Aktivität gegenüber P. variotii (Paecilomyces variotii; 10µg/mL): -; Aktivität gegenüber P. variotii (Paecilomyces variotii; 50µg/mL): -; inhibition of growth at 5 µg/mL (Botrytis cinerea): 0 to 25%; inhibition of growth at 10 µg/mL (Botrytis cinerea): 0 to 25%; inhibition of growth at 25 µg/mL (Botrytis cinerea): 0 to 25%; inhibition of growth at 50 µg/mL (Botrytis cinerea): 0 to 25%; Aktivität gegenüber P. notatum (Penicillium notatum; 10µg/mL): -; Aktivität gegenüber P. notatum (Penicillium notatum; 50µg/mL): -
Cc1c(Cl)cc(C(C)C)c(O)c1[Se]c1c(C)c(Cl)cc(C(C)C)c1O [Verbindung 21, Bis(3-chlor-6-hydroxy-5-isopropyl-2-methylphenyl)selen] | - | - | 50 to 75% | > 75% | > 75% | > 75% | 25 to 50% | > 75% | > 75% | > 75% | - (weniger als 75 % Wachstumshemmung im Vergleich zur Kontrolle) | - (weniger als 75 % Wachstumshemmung im Vergleich zur Kontrolle) | - (weniger als 75 % Wachstumshemmung im Vergleich zur Kontrolle) | - (weniger als 75 % Wachstumshemmung im Vergleich zur Kontrolle) | - (weniger als 75 % Wachstumshemmung im Vergleich zur Kontrolle) | - (weniger als 75 % Wachstumshemmung im Vergleich zur Kontrolle) | - | - | 0 to 25% | 0 to 25% | inhibition of growth at 25 µg/mL (P. infestans): 0 to 25%; inhibition of growth at 50 µg/mL (P. infestans): 0 to 25%; Wirksamkeit gegenüber P. infestans (P. infestans; […]): keine Wirkung; Aktivität gegenüber P. variotii (Paecilomyces variotii; 10µg/mL): -; Aktivität gegenüber P. variotii (Paecilomyces variotii; 50µg/mL): -; inhibition of growth at 5 µg/mL (Botrytis cinerea): 0 to 25%; inhibition of growth at 10 µg/mL (Botrytis cinerea): 0 to 25%; inhibition of growth at 25 µg/mL (Botrytis cinerea): 0 to 25%; inhibition of growth at 50 µg/mL (Botrytis cinerea): 0 to 25%; Aktivität gegenüber P. notatum (Penicillium notatum; 10µg/mL): -; Aktivität gegenüber P. notatum (Penicillium notatum; 50µg/mL): -
